Experimental data: ChEMBL document CHEMBL3739348, “Novel pyrrole derivatives as selective CHK1 inhibitors: design, regioselective synthesis and molecular modeling” (Medchemcomm, 2015)

What was measured:
[1] = target: RAC-beta serine/threonine-protein kinase (Homo sapiens) (UniProt P31751); assay: Inhibition of AKT2 (unknown origin) at 30 uM by microfluidic assay relative to control
[2] = target: Protein kinase C (PKC) (Homo sapiens) (UniProt O94806+P41743+P17252+P05129+Q05655+P05771+Q05513+Q02156+P24723+Q15139+Q04759); assay: Inhibition of PKC (unknown origin) at 30 uM by microfluidic assay relative to control
[3] = target: MAP kinase-activated protein kinase 2 (Homo sapiens) (UniProt P49137); assay: Inhibition of MK2 (unknown origin) at 30 uM by microfluidic assay relative to control
[4] = target: T1, Serine/threonine-protein kinase D2 (Homo sapiens) (UniProt Q9BZL6); assay: Inhibition of PKD2 (unknown origin) at 30 uM by microfluidic assay relative to control
T1 sequence (whole entry): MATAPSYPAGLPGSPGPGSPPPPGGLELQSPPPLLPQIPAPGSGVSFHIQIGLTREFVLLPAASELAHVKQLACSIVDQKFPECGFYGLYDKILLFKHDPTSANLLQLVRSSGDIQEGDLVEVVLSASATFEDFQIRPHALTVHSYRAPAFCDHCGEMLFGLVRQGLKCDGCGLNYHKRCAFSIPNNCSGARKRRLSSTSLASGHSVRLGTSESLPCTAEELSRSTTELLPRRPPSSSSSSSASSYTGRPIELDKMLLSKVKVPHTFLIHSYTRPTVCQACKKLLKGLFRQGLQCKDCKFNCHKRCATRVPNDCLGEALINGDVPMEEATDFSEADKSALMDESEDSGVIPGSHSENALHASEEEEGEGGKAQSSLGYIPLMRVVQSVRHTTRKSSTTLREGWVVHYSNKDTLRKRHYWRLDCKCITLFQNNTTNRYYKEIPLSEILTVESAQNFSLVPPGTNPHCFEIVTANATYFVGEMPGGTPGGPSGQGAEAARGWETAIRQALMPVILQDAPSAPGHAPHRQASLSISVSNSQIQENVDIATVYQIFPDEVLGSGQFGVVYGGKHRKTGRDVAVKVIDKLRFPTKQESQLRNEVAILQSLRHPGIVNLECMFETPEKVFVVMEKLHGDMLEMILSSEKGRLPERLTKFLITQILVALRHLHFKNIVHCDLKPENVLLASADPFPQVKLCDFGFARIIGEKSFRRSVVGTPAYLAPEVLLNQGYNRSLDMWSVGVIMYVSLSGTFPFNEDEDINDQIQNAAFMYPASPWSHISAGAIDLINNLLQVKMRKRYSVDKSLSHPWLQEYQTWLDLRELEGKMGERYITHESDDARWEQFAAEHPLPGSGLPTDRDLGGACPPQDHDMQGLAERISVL

[5] = target: Mitogen-activated protein kinase 14 (Homo sapiens) (UniProt Q16539); assay: Inhibition of p38a (unknown origin) at 30 uM by microfluidic assay relative to control
[6] = target: Tyrosine-protein kinase ABL1 (Homo sapiens) (UniProt P00519); assay: Inhibition of ABL (unknown origin) at 30 uM by microfluidic assay relative to control
[7] = target: T2, Aurora kinase A (Homo sapiens) (UniProt O14965); assay: Inhibition of AurA (unknown origin) at 30 uM by microfluidic assay relative to control
T2 sequence (whole entry): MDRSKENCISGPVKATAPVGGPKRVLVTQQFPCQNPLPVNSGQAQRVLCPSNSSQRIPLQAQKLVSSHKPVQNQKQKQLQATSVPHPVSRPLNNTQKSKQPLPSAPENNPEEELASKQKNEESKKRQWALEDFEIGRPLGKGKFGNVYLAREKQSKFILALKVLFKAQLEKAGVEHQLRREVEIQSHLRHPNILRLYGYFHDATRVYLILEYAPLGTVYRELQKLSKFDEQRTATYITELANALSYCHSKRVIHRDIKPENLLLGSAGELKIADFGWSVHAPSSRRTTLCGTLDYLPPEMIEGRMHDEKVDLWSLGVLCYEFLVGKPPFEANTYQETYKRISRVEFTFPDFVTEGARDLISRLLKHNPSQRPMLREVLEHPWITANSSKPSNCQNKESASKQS

[8] = target: Vascular endothelial growth factor receptor 2 (Homo sapiens, UniProt P35968); assay: Inhibition of VEGFR-2 (unknown origin) by microfluidic assay relative to control
[9] = target: Epidermal growth factor receptor (Homo sapiens, UniProt P00533); assay: Inhibition of EGFR (unknown origin) by microfluidic assay relative to control
Homo sapiens [10] = organism: Homo sapiens; assay: Selectivity index, ratio of IC50 for VEGFR-2 (unknown origin) to IC50 for CHK1 (unknown origin)
Homo sapiens [11] = organism: Homo sapiens; assay: Selectivity index, ratio of IC50 for EGFR (unknown origin) to IC50 for CHK1 (unknown origin)

MAP kinase-activated protein kinase 2 (Homo sapiens), sequence (P49137 whole entry, looked up): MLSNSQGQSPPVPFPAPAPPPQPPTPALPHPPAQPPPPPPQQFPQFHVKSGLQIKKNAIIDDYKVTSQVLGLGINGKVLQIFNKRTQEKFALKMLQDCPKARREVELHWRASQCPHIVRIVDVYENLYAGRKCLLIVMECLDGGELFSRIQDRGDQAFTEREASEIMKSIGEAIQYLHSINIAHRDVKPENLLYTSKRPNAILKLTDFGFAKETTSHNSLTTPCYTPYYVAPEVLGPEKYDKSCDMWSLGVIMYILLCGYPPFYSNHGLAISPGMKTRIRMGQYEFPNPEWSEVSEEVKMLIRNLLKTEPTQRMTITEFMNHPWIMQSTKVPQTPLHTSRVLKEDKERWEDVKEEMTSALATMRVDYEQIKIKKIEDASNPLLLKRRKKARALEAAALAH
RAC-beta serine/threonine-protein kinase (Homo sapiens), sequence (P31751 whole entry): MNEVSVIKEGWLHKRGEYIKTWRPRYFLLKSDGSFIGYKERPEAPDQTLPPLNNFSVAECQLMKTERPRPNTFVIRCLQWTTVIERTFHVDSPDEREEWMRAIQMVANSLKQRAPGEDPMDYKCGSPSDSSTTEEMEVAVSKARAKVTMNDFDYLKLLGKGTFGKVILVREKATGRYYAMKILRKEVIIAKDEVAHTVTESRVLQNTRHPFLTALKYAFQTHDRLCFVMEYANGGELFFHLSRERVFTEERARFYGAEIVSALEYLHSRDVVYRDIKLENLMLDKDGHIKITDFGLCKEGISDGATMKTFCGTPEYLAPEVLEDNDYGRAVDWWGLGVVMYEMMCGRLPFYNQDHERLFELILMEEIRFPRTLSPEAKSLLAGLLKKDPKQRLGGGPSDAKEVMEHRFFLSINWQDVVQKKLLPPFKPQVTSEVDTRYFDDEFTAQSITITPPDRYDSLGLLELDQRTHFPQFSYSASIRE
Tyrosine-protein kinase ABL1 (Homo sapiens), sequence (P00519 whole entry): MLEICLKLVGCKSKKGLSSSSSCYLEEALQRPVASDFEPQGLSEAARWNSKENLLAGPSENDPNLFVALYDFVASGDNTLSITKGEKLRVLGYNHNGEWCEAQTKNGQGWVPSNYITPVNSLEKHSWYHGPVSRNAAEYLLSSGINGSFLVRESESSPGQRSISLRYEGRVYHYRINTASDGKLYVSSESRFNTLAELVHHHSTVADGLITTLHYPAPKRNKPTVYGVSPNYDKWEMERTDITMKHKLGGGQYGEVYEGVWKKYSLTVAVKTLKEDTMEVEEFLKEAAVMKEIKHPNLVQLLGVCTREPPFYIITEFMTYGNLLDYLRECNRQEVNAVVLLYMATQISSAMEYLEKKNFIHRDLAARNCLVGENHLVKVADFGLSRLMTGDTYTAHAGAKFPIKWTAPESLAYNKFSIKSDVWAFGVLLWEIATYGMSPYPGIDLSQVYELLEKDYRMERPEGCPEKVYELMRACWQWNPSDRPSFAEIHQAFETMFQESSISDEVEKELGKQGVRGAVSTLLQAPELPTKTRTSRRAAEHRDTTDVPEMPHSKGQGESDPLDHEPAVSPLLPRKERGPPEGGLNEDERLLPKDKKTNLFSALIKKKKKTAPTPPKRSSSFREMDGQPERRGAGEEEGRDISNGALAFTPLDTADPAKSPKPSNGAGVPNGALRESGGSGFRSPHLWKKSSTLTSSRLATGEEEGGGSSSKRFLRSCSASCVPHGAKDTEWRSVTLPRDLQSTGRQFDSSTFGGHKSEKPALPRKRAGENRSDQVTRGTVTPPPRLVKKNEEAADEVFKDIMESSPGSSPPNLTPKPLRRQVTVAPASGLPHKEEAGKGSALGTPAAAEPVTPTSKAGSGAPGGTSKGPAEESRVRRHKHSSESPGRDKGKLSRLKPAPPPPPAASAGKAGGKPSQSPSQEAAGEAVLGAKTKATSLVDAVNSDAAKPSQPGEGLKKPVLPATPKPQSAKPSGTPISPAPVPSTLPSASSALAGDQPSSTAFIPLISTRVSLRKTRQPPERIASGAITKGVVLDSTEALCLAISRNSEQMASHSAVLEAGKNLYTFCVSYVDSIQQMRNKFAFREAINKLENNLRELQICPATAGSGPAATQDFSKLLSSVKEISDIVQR
Mitogen-activated protein kinase 14 (Homo sapiens), sequence (Q16539 whole entry): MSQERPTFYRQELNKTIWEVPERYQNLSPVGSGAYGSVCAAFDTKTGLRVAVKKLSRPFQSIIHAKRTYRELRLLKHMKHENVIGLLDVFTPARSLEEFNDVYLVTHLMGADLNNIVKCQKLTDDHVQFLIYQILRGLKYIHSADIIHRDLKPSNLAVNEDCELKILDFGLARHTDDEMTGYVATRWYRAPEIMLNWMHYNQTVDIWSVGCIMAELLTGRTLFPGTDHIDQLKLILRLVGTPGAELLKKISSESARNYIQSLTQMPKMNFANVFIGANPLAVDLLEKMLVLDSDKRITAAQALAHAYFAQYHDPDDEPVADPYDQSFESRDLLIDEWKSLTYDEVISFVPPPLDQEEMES
Vascular endothelial growth factor receptor 2, sequence (P35968 whole entry): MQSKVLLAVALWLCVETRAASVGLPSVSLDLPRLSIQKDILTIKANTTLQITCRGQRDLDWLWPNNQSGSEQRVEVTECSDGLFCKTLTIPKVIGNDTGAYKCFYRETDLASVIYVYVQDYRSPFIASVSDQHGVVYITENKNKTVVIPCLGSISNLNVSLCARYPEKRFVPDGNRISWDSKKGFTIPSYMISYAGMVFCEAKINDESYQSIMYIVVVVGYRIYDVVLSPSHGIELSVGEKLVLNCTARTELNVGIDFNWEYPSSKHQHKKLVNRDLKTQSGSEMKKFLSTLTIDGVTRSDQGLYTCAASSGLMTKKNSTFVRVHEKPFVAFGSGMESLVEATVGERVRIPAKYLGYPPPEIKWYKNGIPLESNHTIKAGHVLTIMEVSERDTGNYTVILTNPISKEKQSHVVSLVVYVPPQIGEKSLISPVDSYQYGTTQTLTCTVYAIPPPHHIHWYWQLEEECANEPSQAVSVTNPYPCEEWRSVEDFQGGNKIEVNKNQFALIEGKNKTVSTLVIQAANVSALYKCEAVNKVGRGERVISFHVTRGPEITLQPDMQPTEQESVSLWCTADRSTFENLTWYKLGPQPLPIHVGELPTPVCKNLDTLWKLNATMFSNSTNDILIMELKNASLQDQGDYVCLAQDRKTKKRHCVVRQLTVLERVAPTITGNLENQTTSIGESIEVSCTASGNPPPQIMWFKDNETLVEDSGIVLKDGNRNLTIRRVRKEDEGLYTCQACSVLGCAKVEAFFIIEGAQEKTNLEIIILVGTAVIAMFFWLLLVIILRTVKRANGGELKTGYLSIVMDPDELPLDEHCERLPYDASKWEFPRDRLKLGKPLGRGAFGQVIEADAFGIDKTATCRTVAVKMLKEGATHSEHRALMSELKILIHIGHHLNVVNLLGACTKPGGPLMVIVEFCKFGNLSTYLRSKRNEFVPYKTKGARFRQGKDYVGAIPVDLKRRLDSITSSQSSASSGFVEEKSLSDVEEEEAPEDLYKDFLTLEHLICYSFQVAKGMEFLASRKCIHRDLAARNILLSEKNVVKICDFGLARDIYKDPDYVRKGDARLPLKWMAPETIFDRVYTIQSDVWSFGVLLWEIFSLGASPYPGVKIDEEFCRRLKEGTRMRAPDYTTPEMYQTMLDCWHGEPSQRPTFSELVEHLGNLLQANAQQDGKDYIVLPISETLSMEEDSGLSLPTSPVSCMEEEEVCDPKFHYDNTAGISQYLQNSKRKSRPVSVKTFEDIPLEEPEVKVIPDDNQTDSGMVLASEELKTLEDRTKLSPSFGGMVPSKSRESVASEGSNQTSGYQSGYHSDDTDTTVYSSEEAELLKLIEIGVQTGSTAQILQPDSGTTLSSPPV
Epidermal growth factor receptor, sequence (P00533 whole entry): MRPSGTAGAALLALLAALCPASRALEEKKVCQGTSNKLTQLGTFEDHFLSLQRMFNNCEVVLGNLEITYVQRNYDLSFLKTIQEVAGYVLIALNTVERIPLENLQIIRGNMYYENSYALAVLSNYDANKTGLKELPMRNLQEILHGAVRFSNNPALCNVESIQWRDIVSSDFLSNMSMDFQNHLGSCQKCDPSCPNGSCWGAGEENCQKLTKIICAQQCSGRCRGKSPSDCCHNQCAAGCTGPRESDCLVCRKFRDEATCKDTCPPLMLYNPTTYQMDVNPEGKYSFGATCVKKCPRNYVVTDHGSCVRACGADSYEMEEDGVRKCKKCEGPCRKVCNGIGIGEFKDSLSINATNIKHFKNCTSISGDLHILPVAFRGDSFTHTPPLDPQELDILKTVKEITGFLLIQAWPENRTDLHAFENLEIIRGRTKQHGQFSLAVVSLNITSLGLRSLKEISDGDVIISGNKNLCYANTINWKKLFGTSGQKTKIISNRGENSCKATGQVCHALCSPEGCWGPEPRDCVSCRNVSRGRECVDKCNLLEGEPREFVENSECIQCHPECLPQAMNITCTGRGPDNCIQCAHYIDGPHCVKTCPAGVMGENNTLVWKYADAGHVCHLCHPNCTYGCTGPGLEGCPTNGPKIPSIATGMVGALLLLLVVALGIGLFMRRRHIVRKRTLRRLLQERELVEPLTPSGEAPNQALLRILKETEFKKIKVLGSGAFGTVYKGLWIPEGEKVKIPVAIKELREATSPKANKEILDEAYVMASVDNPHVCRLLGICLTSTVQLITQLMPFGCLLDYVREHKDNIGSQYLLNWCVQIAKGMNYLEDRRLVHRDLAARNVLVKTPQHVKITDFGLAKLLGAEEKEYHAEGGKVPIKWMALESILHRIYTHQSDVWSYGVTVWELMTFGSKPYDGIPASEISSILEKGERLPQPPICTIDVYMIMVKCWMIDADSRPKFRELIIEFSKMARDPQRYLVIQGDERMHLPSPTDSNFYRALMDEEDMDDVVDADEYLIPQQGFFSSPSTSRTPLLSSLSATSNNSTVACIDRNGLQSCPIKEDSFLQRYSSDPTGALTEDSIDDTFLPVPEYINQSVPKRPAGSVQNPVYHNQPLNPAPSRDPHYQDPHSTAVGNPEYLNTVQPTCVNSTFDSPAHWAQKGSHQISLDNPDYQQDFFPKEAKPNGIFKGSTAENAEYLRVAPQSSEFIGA

Row | inhibition [1] [%] | inhibition [2] [%] | inhibition [3] [%] | inhibition [4] [%] | inhibition [5] [%] | inhibition [6] [%] | inhibition [7] [%] | IC50 [8] [µM] | IC50 [9] [µM] | Ratio IC50 (Homo sapiens [10]) | Ratio IC50 (Homo sapiens [11]) | Structure (SMILES)
1 | 86 | 44 | 26 | 65 | 13 | 32 | 2 | 3.45 | – | – | – | Cc1[nH]c(-c2ccccc2)c(-c2ccccc2)c1C(=O)c1cn(-c2ccccc2)nc1C(=O)Nc1ccccc1
2 | 56 | 34 | 76 | 54 | 21 | 4 | 23 | 4.56 | 5.1 | 14.7 | 16.4 | Cc1[nH]c(-c2ccccc2)c(-c2ccccc2)c1C(=O)c1coc2c1cc(O)c1ccccc12
3 | 56 | 63 | 19 | 32 | 2 | 5 | 32 | 3.45 | – | – | – | Cc1[nH]c(-c2ccccc2)c(-c2ccccc2)c1-c1nnc(O)c2nn(-c3ccccc3)cc12
